Test results: patent US20050143357A1 (priority 2002, published 2005)

Legend:
[1] = tested on: upstream regulatory portion of the VDUP-1; assay: VDUP-1 regulatory region luciferase reporter assay in transiently transfected LNCaP cells; assay type: cell-based, human; settings: VDUP-1 regulatory portion fused to luceferase gene, different time points, luminometer
Procedure: A human cell line, LNCaP was transiently transfected with a DNA vector composed of the upstream regulatory portion of the VDUP-1 fused to the gene encoding luceferase. The procedures to carry out transfection were essentially as described in example 2. At different time points a steroid with androgen properties, exemplified as R1881, were added to cell cultures, as was calcitriol (vitamin D). At different time points, luciferace activity in cell extracts was measured using a luminometer. The outcome of this experiment was that the level of luceferase was decreased by the steroid and was increased by vitamin D.

5 α-reduotase = settings: once it enters prostate cells, by 5 α-reduotase; cited from earlier work

Row | Compound | level of luceferase (luciferace activity in cell extracts) [1] | fraction converted to dihydrotestosterone (DHT) (5 α-reduotase)
1 | C[C@]1(O)CC[C@H]2[C@@H]3CCC4=CC(=O)CCC4=C3C=C[C@@]21C [R1881] | decreased | 
2 | C[C@]12CC[C@H]3[C@@H](CCC4=CC(=O)CC[C@@]43C)[C@@H]1CC[C@@H]2O [Testosterone] |  | about 90%
3 | C=C1/C(=C\C=C2/CCC[C@]3(C)[C@@H]([C@H](C)CCCC(C)(C)O)CC[C@@H]23)C[C@@H](O)C[C@@H]1O [calcitriol] | increased | 
